Active and inactive are the calls of the source. Where only a bound is given, the exact number is not on record here.

Experimental findings from ChEMBL document CHEMBL1201862, “PubChem BioAssay data set” (2004) are described below.

Series [1] has as its target Cytochrome P450 2D6 (Homo sapiens, UniProt P10635).
The target of series [2] is Mu-type opioid receptor (Homo sapiens, UniProt P35372). The format is functional, cell-based.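 Also: U2OS cells with beta-arrestin recruitment to OPRM1 by beta-gal complementation.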
Series [3] addresses 5-hydroxytryptamine receptor 2A (Mus musculus, UniProt P35363). It counts as functional, cell-based.
Series [4] addresses Cytochrome P450 2C9 (Homo sapiens, UniProt P11712).
Series [5] addresses T1, Cytochrome P450 1A2 (Homo sapiens, UniProt P05177).
T1 sequence (P05177 whole entry): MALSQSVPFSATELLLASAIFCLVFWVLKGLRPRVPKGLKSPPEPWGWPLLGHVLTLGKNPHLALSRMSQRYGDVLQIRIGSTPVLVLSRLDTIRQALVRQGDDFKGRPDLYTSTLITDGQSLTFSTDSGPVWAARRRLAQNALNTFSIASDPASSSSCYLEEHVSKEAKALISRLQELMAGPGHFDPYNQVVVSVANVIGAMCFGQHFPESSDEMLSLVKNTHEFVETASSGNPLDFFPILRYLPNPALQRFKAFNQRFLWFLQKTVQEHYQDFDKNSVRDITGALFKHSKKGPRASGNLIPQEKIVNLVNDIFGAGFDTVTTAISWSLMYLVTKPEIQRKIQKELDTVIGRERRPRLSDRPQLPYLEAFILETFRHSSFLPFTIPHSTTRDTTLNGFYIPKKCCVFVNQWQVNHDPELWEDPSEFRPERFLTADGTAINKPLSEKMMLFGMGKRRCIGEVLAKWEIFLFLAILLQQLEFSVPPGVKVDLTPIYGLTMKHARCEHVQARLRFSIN

The target in series [6] is Cytochrome P450 2C19 (Homo sapiens, UniProt P33261). Briefly: Cytochrome panel assay with activity outcomes. Panel member name: p450-cyp2c19 Compounds with AC50 equal or less than 10 uM are considered active. The format is functional.
Series [7] deals with T2, Calpain-2 catalytic subunit (Sus scrofa, UniProt P43367).
T2 sequence (P43367 whole entry): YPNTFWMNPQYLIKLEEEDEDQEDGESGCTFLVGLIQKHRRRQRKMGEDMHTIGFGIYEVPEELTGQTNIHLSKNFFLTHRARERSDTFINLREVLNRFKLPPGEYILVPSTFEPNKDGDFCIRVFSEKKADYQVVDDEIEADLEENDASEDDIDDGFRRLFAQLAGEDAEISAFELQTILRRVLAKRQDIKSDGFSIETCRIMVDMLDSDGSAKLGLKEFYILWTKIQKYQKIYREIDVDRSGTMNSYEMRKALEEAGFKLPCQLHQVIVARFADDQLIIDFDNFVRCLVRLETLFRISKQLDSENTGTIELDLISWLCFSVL
Briefly: m-calpain protease blockers, concentration series – biochemical, fluorogenic peptide substrate, dose response (AID 1420). The format is functional.

The target in series [8] is T3, Methionyl-tRNA synthetase, putative (Trypanosoma brucei brucei, UniProt Q38C91).
T3 sequence (Q38C91 whole entry): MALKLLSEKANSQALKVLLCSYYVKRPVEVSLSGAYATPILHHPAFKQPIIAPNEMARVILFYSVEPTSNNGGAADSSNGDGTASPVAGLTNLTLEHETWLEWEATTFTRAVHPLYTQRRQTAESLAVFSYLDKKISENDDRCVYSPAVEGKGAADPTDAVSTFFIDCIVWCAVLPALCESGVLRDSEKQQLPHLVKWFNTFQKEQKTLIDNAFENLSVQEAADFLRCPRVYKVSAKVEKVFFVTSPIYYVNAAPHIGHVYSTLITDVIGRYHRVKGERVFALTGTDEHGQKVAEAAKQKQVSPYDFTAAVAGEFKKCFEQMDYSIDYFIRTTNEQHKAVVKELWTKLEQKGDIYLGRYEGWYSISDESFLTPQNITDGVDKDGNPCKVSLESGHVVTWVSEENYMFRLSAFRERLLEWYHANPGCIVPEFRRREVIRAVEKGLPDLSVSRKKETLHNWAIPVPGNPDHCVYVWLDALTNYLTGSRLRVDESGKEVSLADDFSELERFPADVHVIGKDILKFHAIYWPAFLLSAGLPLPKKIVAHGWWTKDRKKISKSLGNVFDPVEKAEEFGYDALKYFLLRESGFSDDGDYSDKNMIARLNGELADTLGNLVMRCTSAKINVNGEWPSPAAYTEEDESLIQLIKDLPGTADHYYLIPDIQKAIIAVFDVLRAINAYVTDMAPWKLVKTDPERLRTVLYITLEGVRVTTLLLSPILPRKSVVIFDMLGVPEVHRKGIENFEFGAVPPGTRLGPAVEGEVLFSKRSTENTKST
The format is functional, Trypanosoma brucei brucei strain 927/4 GUTat10.1.

Series [9] in a line: Counterscreen for inhibitors of Trypanosoma brucei methionyl tRNA synthetase (MetRS): Luminescence-based cell-based high throughput dose response assay to identify compounds that are cytotoxic to Jurkat human T lymphocyte cells. The format is functional. On the technique in general: Counterscreens check selectivity or assay interference.
Series [10] concerns the target Beta-galactosidase (Escherichia coli, UniProt Q8VNN2). The experiment in a line: Dose response counterscreen for EBI2 assay utilizing the enzyme, b-galactosidase. The format is functional.
In series [11] the target is T4, RNA-binding protein pos-1 (Caenorhabditis elegans, UniProt G5EF15).
T4 sequence (G5EF15 whole entry): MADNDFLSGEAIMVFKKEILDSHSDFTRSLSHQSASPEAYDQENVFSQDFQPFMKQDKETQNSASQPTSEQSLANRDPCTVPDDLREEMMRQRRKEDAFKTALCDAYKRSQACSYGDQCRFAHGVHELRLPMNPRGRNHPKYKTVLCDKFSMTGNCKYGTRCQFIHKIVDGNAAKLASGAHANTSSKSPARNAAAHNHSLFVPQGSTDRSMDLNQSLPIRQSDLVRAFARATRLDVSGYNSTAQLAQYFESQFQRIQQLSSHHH
The experiment in a line: disruptors of C. elegans POS-1 RNA interaction – biochemical, fluorescence polarization, dose response (AID 1964).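 Also: purified POS-1 fused to maltose binding protein made in E. coli; potency of compounds blocking POS-1 binding to fluorescent RNA.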 For orientation: Polarisation of emitted light reports the rotation of a fluorescent probe.

For series [12], the target named is Large T antigen (Simian virus 40, UniProt P03070). The format is functional, Betapolyomavirus macacae.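 Also: Confirmatory-stage PubChem screen for compounds that inhibit SV40 T antigen.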
Series [13] concerns the target Glucose-6-phosphate 1-dehydrogenase (Homo sapiens, UniProt P11413). The experiment in a line: inhibition of Homo sapiens G6PD, dose series – biochemical, fluorescence, selectivity assay for P. falciparum G6PD inhibitor project, dose response (AID 504792). The format is functional.
Series [14] addresses T5, Zinc finger protein mex-5 (Caenorhabditis elegans, UniProt Q9XUB2).
T5 sequence (Q9XUB2 whole entry): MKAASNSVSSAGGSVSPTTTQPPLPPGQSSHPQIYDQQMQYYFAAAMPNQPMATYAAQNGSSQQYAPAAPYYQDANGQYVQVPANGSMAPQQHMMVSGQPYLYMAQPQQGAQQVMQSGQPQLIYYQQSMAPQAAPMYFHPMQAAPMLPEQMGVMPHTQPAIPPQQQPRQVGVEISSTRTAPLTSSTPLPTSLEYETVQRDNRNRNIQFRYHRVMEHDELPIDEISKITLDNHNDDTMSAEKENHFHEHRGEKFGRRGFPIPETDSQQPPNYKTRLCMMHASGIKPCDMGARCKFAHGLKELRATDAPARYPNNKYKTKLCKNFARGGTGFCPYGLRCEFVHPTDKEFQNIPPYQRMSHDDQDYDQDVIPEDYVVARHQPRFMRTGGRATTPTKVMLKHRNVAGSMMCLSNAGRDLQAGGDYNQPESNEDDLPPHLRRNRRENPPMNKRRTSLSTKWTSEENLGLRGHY
Briefly: potency of MEX-5 RNA-binding blockers – biochemical, C. elegans, fluorescence polarization, dose response (AID 1960).

The nature of series [15]: viability of uninfected HEp-2 cells – cell-based, HTS, cytotoxicity control for RSV inhibitor project, dose response (AID 2410). The settings on record: human respiratory syncytial virus. The format is functional.
For series [16], the target named is T6, Protein RecA (Mycobacterium tuberculosis, UniProt P9WHJ3).
T6 sequence (P9WHJ3 whole entry): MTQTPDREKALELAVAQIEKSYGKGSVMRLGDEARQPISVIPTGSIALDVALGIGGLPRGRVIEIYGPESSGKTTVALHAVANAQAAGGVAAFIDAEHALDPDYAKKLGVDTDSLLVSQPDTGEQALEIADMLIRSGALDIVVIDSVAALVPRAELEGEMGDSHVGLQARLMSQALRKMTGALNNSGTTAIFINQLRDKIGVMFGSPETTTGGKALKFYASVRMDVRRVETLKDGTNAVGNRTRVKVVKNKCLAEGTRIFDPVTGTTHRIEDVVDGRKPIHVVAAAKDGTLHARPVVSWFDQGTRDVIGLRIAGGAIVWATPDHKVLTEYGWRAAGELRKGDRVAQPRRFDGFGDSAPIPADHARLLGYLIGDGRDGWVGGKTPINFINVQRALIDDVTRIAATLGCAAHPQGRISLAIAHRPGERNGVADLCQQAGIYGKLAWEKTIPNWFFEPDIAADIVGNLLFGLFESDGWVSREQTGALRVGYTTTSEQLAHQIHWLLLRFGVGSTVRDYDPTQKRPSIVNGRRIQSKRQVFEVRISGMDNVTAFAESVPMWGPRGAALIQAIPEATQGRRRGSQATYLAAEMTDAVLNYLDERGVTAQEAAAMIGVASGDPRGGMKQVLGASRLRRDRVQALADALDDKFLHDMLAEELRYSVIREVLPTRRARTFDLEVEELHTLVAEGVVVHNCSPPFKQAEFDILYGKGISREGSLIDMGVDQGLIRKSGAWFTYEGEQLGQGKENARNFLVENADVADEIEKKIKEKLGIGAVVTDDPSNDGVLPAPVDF
Briefly: Fluorescence Cell-Free Homogeneous Dose Retest to Identify Inhibitors of RecA-Intein Splicing Activity. [Related pubchem assays (depositor defined):AID2097, AID2223, AID489010, AID492950]. It counts as functional.

The target of series [17] is T7, Replicative DNA helicase DnaB (Mycobacterium tuberculosis, UniProt P9WMR3).
T7 sequence (P9WMR3 whole entry): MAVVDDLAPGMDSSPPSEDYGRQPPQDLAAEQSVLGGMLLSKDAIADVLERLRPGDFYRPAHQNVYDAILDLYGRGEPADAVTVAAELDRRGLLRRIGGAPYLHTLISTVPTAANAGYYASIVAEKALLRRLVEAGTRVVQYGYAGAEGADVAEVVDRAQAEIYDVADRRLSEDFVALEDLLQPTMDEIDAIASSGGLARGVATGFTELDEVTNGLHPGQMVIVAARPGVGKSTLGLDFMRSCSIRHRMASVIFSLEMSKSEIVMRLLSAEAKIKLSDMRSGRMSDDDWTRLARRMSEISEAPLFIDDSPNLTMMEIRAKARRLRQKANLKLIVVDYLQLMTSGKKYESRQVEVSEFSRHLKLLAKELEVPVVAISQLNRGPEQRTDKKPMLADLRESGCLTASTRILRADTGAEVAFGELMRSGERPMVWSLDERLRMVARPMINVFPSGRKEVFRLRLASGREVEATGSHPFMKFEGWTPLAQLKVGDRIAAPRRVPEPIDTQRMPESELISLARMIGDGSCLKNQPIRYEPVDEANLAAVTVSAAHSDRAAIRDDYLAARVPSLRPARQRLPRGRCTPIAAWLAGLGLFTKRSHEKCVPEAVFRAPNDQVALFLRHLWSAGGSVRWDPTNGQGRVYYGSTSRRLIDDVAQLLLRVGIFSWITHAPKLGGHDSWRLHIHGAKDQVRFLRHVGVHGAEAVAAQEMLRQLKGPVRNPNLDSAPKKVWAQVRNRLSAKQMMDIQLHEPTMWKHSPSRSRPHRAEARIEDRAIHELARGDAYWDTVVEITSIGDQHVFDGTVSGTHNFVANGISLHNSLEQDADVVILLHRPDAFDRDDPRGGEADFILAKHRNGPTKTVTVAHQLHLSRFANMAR
Briefly: DnaB intein splicing inhibitors, dose response, biochemical, cell-free fluorescence (AID 449749). It counts as functional.

Chain of Mu-type opioid receptor (P35372 whole entry): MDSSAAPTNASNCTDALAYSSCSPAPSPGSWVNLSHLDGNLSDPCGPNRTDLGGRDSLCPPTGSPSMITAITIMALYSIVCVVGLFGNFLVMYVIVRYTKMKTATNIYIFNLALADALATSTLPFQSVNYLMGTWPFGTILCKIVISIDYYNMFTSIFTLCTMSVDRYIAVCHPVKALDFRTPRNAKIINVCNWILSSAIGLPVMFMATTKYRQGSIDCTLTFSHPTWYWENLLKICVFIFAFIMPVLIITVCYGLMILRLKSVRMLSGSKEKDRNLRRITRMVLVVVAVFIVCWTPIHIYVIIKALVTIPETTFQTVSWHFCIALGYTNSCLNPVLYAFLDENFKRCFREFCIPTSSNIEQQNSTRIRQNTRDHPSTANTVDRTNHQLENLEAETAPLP
Chain of 5-hydroxytryptamine receptor 2A (P35363 whole entry): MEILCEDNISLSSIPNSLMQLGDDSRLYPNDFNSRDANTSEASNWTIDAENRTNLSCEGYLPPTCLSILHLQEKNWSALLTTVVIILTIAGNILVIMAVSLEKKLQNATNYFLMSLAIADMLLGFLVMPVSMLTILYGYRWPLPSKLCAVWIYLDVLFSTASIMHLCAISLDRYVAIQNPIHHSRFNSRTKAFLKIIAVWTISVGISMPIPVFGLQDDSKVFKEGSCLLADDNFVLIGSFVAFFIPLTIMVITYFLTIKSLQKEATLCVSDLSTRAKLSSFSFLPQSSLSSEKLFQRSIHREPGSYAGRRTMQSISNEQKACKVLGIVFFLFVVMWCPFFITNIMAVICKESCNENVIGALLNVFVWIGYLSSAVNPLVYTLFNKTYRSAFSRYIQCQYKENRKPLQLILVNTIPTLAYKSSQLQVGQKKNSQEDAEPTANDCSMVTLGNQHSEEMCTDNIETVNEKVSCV
Chain of Beta-galactosidase (Q8VNN2 whole entry): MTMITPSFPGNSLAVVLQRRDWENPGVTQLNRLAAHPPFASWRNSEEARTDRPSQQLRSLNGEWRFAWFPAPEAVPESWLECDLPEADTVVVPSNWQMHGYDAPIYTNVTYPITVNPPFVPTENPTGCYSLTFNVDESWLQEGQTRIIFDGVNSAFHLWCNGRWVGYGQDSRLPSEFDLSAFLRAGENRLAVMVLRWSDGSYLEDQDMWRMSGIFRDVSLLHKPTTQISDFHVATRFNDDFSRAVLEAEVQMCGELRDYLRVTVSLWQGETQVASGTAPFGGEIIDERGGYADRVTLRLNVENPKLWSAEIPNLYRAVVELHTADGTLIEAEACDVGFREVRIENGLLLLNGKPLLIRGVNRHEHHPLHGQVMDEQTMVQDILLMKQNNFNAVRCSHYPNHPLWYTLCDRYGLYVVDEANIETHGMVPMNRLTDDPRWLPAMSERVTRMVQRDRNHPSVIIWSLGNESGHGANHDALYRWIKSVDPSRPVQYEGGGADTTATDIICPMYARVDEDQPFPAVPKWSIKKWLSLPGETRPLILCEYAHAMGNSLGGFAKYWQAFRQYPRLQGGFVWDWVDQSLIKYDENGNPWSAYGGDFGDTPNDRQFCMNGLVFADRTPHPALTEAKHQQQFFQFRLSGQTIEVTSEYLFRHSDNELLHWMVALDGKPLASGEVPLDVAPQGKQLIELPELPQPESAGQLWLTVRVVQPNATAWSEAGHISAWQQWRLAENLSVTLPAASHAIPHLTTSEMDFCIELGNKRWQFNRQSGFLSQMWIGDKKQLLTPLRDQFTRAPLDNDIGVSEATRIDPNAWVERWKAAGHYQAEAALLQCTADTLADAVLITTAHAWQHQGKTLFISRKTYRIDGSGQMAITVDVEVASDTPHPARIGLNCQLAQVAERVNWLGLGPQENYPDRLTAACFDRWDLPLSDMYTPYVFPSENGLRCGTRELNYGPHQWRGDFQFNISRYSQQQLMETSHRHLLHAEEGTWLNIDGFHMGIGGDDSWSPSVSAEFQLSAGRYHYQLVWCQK
Chain of Glucose-6-phosphate 1-dehydrogenase (P11413 whole entry): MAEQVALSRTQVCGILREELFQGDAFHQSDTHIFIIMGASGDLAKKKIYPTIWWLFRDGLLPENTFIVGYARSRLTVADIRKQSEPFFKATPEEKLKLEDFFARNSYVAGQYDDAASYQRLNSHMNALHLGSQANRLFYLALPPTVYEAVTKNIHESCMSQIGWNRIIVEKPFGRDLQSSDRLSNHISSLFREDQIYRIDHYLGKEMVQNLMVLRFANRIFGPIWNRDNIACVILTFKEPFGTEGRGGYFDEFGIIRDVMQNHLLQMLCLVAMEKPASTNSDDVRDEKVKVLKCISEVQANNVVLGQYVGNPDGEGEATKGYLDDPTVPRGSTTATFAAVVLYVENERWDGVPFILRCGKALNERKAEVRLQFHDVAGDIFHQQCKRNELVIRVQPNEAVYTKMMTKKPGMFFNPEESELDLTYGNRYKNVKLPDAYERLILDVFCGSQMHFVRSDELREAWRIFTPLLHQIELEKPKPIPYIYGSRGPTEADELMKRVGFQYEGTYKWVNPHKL
Chain of Large T antigen (P03070 whole entry): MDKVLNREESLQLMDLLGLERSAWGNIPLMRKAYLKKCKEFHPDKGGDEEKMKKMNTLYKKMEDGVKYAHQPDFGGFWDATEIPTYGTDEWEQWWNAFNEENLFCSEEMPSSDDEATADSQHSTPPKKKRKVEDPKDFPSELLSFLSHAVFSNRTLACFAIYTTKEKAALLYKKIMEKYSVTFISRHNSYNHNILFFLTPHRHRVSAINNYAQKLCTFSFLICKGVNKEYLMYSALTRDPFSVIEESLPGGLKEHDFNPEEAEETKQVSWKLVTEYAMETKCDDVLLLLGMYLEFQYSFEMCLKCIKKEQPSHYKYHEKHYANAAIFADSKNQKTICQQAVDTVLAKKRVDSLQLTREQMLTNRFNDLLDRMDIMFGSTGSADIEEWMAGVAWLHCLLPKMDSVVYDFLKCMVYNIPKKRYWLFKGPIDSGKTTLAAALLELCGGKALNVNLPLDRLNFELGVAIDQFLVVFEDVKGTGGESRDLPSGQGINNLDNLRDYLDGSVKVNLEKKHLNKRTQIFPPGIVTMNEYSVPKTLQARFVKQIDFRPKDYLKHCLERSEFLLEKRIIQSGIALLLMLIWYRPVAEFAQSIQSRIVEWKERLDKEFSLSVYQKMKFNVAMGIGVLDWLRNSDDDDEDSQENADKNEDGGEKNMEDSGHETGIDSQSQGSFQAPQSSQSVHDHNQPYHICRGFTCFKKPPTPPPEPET
Chain of Cytochrome P450 2D6 (P10635 whole entry): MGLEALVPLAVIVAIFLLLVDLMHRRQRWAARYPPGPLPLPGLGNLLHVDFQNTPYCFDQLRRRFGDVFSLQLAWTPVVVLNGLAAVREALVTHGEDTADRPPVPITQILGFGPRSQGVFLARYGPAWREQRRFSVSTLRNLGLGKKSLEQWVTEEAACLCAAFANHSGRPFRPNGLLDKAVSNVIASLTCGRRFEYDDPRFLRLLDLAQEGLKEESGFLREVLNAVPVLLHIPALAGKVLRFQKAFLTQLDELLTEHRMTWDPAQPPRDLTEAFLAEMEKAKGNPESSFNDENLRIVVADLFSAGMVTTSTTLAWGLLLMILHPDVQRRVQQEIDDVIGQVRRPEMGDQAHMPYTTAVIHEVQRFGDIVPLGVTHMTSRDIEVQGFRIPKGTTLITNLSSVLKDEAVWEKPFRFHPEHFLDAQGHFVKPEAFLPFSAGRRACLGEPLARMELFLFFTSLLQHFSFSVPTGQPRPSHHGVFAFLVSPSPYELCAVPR
Chain of Cytochrome P450 2C19 (P33261 whole entry): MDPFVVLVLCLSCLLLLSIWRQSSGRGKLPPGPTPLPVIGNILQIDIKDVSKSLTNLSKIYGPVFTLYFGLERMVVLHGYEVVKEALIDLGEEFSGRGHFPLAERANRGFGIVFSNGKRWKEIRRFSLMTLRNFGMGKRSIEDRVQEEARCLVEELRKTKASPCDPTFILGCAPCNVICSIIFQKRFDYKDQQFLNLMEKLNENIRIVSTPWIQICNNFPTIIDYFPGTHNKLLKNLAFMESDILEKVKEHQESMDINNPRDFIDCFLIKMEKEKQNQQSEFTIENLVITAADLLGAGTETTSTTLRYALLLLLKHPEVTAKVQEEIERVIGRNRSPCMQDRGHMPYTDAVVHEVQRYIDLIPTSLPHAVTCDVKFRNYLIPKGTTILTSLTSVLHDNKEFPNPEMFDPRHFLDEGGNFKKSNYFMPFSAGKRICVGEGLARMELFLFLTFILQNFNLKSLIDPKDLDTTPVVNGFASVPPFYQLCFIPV
Chain of Cytochrome P450 2C9 (P11712 whole entry): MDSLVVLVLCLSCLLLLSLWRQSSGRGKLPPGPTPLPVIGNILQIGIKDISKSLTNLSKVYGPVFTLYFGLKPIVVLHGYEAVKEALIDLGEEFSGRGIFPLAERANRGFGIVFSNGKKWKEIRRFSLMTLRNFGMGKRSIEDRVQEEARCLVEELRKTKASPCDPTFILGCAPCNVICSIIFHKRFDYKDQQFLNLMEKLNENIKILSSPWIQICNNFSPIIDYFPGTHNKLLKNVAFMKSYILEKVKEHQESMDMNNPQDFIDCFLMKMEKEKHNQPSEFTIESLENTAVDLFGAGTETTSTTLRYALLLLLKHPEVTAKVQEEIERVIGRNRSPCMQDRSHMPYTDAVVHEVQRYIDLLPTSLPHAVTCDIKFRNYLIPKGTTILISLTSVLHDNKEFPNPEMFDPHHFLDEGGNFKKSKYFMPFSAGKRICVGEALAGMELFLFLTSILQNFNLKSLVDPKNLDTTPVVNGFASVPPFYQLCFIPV

Regarding `CCS(=O)(=O)N1CCC(C(=O)NCCCN2CCN(c3ccccc3F)CC2)CC1`, the concentration at half-maximal activity (AC50) (usually the midpoint of the concentration-response curve, whichever way the signal moves) in series [1] is 15.8 µM (inconclusive); in series [4], “inconclusive”; in series [5] it was 1.26 µM (inconclusive); in series [6], “inconclusive”. Also, the EC50 (usually the concentration at which the effect is half-maximal) in series [2] was 92.5 µM (inactive); in [3], 76.1 µM (inactive).

`CO/N=C(\c1nonc1N)N1CCN(c2ccc(Cl)cc2[N+](=O)[O-])CC1`: the IC50 – broadly, the point on the concentration scale where inhibition reaches its midpoint – in series [7] is > 50 µM (not active); in [8] it was 119 µM (inactive); in series [9], 83.3 µM (inactive).

In the case of `Cc1ccc2[nH]c(C(=O)N3CCN(C(c4ccccc4)c4ccccc4)CC3)cc2c1`, the IC50 in series [10] is > 80 µM (inactive).

As for `CN1CCc2cc(O)cc3c2[C@H]1Cc1ccc(O)c(O)c1-3`, the EC50 was 5.41 µM (active) in [11], 92.4 µM (inactive) in series [2], 0.0112 µM (active) in series [3] and 3.17 µM (active) in [14]. The IC50 in series [12] was 9.43 µM (active); in series [13] it was 63 µM (inactive). The cytotoxic concentration (CC50) – broadly, the concentration that lowers cell viability or growth by half – in [15] was 16 µM (active).

Turning to `CCC(c1nnnn1-c1ccc2c(c1)OCCO2)N1CCN(C/C=C/c2ccccc2)CC1` (centres undefined), the EC50 is 92.6 µM (inactive) in series [2] and 76.2 µM (inactive) in [3].

As to `COc1ccc(-c2cc(C(=O)N3CCN(C(c4ccccc4)c4ccccc4)CC3)no2)cc1`, the IC50 in series [10] is > 80 µM (inactive).

On to `CC(C)C[C@H]1C(=O)N2CCC[C@H]2[C@]2(O)O[C@](NC(=O)[C@@H]3C=C4c5cccc6[nH]c(Br)c(c56)CC4N(C)C3)(C(C)C)C(=O)N12` (some centres undefined), for which the results for the EC50 in series [2], in [3] and in series [16] were 92.5 µM (inactive), 0.0038 µM (active) and > 380 µM (inactive), respectively. Further, in series [17], the AC50 is > 380 µM (inactive).
